Laboratory results reported in the supplement of paper PMC8882468.

Test system: HCI-027 (organoid from a triple-negative breast cancer xenograft)
Assay: CTG-3D luminescence at 96 h relative to day-0 seeding control (ratio to day 0); higher = more growth / less cytotoxicity; PDxO 3D drug screen, 96 h, CTG-3D normalised to day-0 seeding control.
Conditions: 0.005 µM; days in culture: 201

| SMILES | CTG-3D luminescence at 96 h |
| --- | --- |
| COc1cc2c(Oc3ccc4[nH]c(C)cc4c3F)ncnc2cc1OCCCN1CCCC1 [cediranib] | 1.78 |
| CC(C)n1nc(-c2ccc3oc(N)nc3c2)c2c(N)ncnc21 [sapanisertib] | 2.1 |
| Cc1cc(Nc2ncnc3ccc(NC4=NC(C)(C)CO4)cc23)ccc1Oc1ccn2ncnc2c1 [tucatinib] | 2.3 |
| C[C@H](NC(=O)CCC(F)(F)F)C(=O)N[C@@H]1C(=O)N(CCO)c2ncccc2-c2ccccc21 [crenigacestat] | 1.26 |
| C[C@]12CC[C@@H]3c4ccc(O)cc4C[C@@H](CCCCCCCCC[S+]([O-])CCCC(F)(F)C(F)(F)F)[C@H]3[C@@H]1CC[C@@H]2O (stereo partly specified) [fulvestrant] | 2.87 |
| O=C(c1ccc(F)c(F)c1Nc1ccc(I)cc1F)N1CC(O)([C@@H]2CCCCN2)C1 [cobimetinib] | 1.63 |
| O=C(/C=C/c1cccnc1)NCCCCC1CCN(C(=O)c2ccccc2)CC1 [FK866] | 0.166 |
| CS(=O)(=O)c1ccc(C(=O)Nc2ccc(Cl)c(-c3ccccn3)c2)c(Cl)c1 [vismodegib] | 3.44 |
| C=CCn1c(=O)c2cnc(Nc3ccc(N4CCN(C)CC4)cc3)nc2n1-c1cccc(C(C)(C)O)n1 [adavosertib] | 2.08 |

Same assay, conditions: 0.1 µM; days in culture: 176

| SMILES | CTG-3D luminescence at 96 h |
| --- | --- |
| COc1cc2c(Oc3ccc4[nH]c(C)cc4c3F)ncnc2cc1OCCCN1CCCC1 [cediranib] | 1.46 |
| CC(C)n1nc(-c2ccc3oc(N)nc3c2)c2c(N)ncnc21 [sapanisertib] | 0.7 |
| Cc1cc(Nc2ncnc3ccc(NC4=NC(C)(C)CO4)cc23)ccc1Oc1ccn2ncnc2c1 [tucatinib] | 2.1 |
| C[C@H](NC(=O)CCC(F)(F)F)C(=O)N[C@@H]1C(=O)N(CCO)c2ncccc2-c2ccccc21 [crenigacestat] | 0.198 |
| C[C@]12CC[C@@H]3c4ccc(O)cc4C[C@@H](CCCCCCCCC[S+]([O-])CCCC(F)(F)C(F)(F)F)[C@H]3[C@@H]1CC[C@@H]2O (stereo partly specified) [fulvestrant] | 2.3 |
| O=C(c1ccc(F)c(F)c1Nc1ccc(I)cc1F)N1CC(O)([C@@H]2CCCCN2)C1 [cobimetinib] | 1.13 |
| O=C(/C=C/c1cccnc1)NCCCCC1CCN(C(=O)c2ccccc2)CC1 [FK866] | 0.104 |
| CS(=O)(=O)c1ccc(C(=O)Nc2ccc(Cl)c(-c3ccccn3)c2)c(Cl)c1 [vismodegib] | 2.12 |
| C=CCn1c(=O)c2cnc(Nc3ccc(N4CCN(C)CC4)cc3)nc2n1-c1cccc(C(C)(C)O)n1 [adavosertib] | 1.21 |

Same assay, conditions: 0.1 µM; days in culture: 194

| SMILES | CTG-3D luminescence at 96 h |
| --- | --- |
| COc1cc2c(Oc3ccc4[nH]c(C)cc4c3F)ncnc2cc1OCCCN1CCCC1 [cediranib] | 1.94 |
| CC(C)n1nc(-c2ccc3oc(N)nc3c2)c2c(N)ncnc21 [sapanisertib] | 0.847 |
| Cc1cc(Nc2ncnc3ccc(NC4=NC(C)(C)CO4)cc23)ccc1Oc1ccn2ncnc2c1 [tucatinib] | 1.66 |
| C[C@H](NC(=O)CCC(F)(F)F)C(=O)N[C@@H]1C(=O)N(CCO)c2ncccc2-c2ccccc21 [crenigacestat] | 0.251 |
| C[C@]12CC[C@@H]3c4ccc(O)cc4C[C@@H](CCCCCCCCC[S+]([O-])CCCC(F)(F)C(F)(F)F)[C@H]3[C@@H]1CC[C@@H]2O (stereo partly specified) [fulvestrant] | 1.78 |
| O=C(c1ccc(F)c(F)c1Nc1ccc(I)cc1F)N1CC(O)([C@@H]2CCCCN2)C1 [cobimetinib] | 1.42 |
| O=C(/C=C/c1cccnc1)NCCCCC1CCN(C(=O)c2ccccc2)CC1 [FK866] | 0.049 |
| CS(=O)(=O)c1ccc(C(=O)Nc2ccc(Cl)c(-c3ccccn3)c2)c(Cl)c1 [vismodegib] | 2.35 |
| C=CCn1c(=O)c2cnc(Nc3ccc(N4CCN(C)CC4)cc3)nc2n1-c1cccc(C(C)(C)O)n1 [adavosertib] | 1.65 |

Same assay, conditions: 0.1 µM; days in culture: 201

| SMILES | CTG-3D luminescence at 96 h |
| --- | --- |
| COc1cc2c(Oc3ccc4[nH]c(C)cc4c3F)ncnc2cc1OCCCN1CCCC1 [cediranib] | 1.87 |
| CC(C)n1nc(-c2ccc3oc(N)nc3c2)c2c(N)ncnc21 [sapanisertib] | 0.956 |
| Cc1cc(Nc2ncnc3ccc(NC4=NC(C)(C)CO4)cc23)ccc1Oc1ccn2ncnc2c1 [tucatinib] | 2.28 |
| C[C@H](NC(=O)CCC(F)(F)F)C(=O)N[C@@H]1C(=O)N(CCO)c2ncccc2-c2ccccc21 [crenigacestat] | 0.249 |
| C[C@]12CC[C@@H]3c4ccc(O)cc4C[C@@H](CCCCCCCCC[S+]([O-])CCCC(F)(F)C(F)(F)F)[C@H]3[C@@H]1CC[C@@H]2O (stereo partly specified) [fulvestrant] | 2.64 |
| O=C(c1ccc(F)c(F)c1Nc1ccc(I)cc1F)N1CC(O)([C@@H]2CCCCN2)C1 [cobimetinib] | 1.68 |
| O=C(/C=C/c1cccnc1)NCCCCC1CCN(C(=O)c2ccccc2)CC1 [FK866] | 0.0645 |
| CS(=O)(=O)c1ccc(C(=O)Nc2ccc(Cl)c(-c3ccccn3)c2)c(Cl)c1 [vismodegib] | 2.6 |
| C=CCn1c(=O)c2cnc(Nc3ccc(N4CCN(C)CC4)cc3)nc2n1-c1cccc(C(C)(C)O)n1 [adavosertib] | 2.23 |
